Values of other authors, collected in US20030109508A1, “Methods for treating dry eye” (Alcon, Inc., priority 2001, published 2003).

Tested on: human conjunctival epithelial cells
Conditions: background statement, no data given

For `CCCCC[C@H](O)/C=C/C=C\C/C=C\C/C=C\CCCC(=O)O` [15-HETE], which “secretion of mucin-1 (MUC-1)” value is on record?
Its value is “increase the secretion of mucin-1 (MUC-1)”.
